{"source": "patent US20050215551A1", "about": "“1-[2H-1-benzopyran-2-one-8-yl]- piperazine derivatives for the treatment of movement disorders” (SOLVAY PHARMACEUTICALS B.V., priority 2004, published 2005)", "key": {"[1]": {"biological_target": "CCKB (Homo sapiens, UniProt P32239)", "sequence (P32239 whole entry)": "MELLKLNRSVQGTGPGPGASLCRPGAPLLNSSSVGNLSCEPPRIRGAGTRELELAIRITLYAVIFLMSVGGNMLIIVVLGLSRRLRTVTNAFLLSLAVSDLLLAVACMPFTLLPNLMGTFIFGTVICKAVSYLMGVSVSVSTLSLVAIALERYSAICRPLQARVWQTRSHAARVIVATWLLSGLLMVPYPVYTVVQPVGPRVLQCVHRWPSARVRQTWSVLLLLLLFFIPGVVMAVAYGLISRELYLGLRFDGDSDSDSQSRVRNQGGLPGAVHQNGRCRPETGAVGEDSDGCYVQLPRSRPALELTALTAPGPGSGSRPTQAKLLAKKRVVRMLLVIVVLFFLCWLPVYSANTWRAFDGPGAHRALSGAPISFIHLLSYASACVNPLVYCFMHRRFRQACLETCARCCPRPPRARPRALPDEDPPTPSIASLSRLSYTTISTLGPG", "assay": "Receptor binding CCKB", "details": "radioligand [3H]-CCK8, read-out: Ki(nM) Compound 1", "experimental": "(§1) Receptor binding data were obtained by CEREP (128, rue Danton, 92500 Rueil-Malmaison, France) or at Solvay Pharmaceuticals B.V., using well documented standard procedures. Affinity for 5-HT1A receptors for instance, was determined by testing the ability of the compounds of the invention to displace [^3H]-2-(di-n-propylamino)-8-hydroxytetralin ([^3H]-8-OH-DPAT) from its specific binding sites in rat frontal cortex homogenates. This test is based on the method described by Gozlan et al. (Nature, 305, (1983), pages 140-142).\n(§2) The binding data collected in the table below were either obtained by CEREP (128, rue Danton, 92500 Rueil-Malmaison, France) or at Solvay Pharmaceuticals B.V., using well documented standard procedures."}, "[2]": {"biological_target": "Muscarine-M2 (Homo sapiens, UniProt P08172)", "assay": "Receptor binding Muscarine-M2", "details": "radioligand [3H]-AFDX-384, read-out: Ki(nM) Compound 1", "experimental": "as §1, §2"}, "[3]": {"biological_target": "5-HT3 (Homo sapiens, UniProt P46098)", "assay": "Receptor binding 5-HT3", "details": "radioligand [3H]-BRL 43694, read-out: Ki(nM) Compound 1", "experimental": "as §1, §2"}, "[4]": {"biological_target": "δ-opiate (Rattus norvegicus, UniProt P33533)", "sequence (P33533 whole entry)": "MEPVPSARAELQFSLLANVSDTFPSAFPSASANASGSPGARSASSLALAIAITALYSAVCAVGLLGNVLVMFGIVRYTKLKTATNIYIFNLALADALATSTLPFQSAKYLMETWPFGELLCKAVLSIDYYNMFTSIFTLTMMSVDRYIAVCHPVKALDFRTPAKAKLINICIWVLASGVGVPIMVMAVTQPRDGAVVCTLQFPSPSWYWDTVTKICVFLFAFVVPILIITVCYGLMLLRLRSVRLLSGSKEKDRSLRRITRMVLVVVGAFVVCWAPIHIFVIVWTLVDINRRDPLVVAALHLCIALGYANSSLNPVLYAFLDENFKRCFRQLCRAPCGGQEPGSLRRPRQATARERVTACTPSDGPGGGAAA", "assay": "Receptor binding δ-opiate", "details": "radioligand [3H]-DPDPE, read-out: Ki(nM) Compound 1", "experimental": "as §1, §2"}, "[5]": {"biological_target": "Endothelin-ETA (Homo sapiens, UniProt P25101)", "sequence (P25101 21-427)": "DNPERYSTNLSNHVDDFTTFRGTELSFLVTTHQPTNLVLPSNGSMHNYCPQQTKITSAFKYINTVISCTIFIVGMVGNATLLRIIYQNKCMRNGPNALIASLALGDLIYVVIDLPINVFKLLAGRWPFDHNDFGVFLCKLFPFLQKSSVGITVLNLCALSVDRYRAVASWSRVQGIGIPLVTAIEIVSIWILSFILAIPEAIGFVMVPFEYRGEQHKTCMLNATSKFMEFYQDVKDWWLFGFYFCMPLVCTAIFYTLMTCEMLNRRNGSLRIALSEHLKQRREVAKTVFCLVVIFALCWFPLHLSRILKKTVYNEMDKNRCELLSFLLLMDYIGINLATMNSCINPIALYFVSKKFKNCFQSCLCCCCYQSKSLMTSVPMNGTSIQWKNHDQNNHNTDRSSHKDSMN", "assay": "Receptor binding Endothelin-ETA", "details": "radioligand [125I]-endothelin-1, read-out: Ki(nM) Compound 1", "experimental": "as §1, §2"}, "[6]": {"biological_target": "β2-adrenergic (Homo sapiens, UniProt P07550)", "sequence (P07550 whole entry)": "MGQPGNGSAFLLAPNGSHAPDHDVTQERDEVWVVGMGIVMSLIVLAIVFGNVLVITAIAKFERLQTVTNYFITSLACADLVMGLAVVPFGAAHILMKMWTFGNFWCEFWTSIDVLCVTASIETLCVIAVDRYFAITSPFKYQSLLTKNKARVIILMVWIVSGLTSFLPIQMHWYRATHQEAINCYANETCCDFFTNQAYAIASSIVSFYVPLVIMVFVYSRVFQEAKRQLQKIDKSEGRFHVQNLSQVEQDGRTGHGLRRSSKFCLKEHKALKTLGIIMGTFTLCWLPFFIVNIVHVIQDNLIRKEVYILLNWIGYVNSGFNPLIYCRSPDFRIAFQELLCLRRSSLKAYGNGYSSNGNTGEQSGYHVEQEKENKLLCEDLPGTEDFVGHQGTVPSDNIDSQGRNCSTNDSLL", "assay": "Receptor binding β2-adrenergic", "details": "radioligand [3H]-CGP 12177, read-out: Ki(nM) Compound 1", "experimental": "as §1, §2"}, "[7]": {"biological_target": "PACAP (Rattus norvegicus, UniProt P32215)", "assay": "Receptor binding PACAP", "details": "radioligand [125I]-PACAP 1-27, read-out: Ki(nM) Compound 1", "experimental": "as §1, §2"}, "[8]": {"biological_target": "Dopaminereuptake (Homo sapiens, UniProt Q01959)", "assay": "Binding Dopamine reuptake", "details": "radioligand [3H]-GBR 12935, read-out: Ki(nM) Compound 1", "experimental": "as §1, §2"}, "[9]": {"biological_target": "5-HT2C (Homo sapiens, UniProt P28335)", "assay": "Receptor binding 5-HT2C", "details": "radioligand [125I]-DOI, read-out: Ki(nM) Compound 1", "experimental": "as §1, §2"}, "[10]": {"biological_target": "Interleukine-6 (Homo sapiens, UniProt P08887)", "assay": "Receptor binding Interleukine-6", "details": "radioligand [125I]-interleukine-6, read-out: Ki(nM) Compound 1", "experimental": "as §1, §2"}, "[11]": {"biological_target": "Dopamine-D5 (Homo sapiens, UniProt P21918)", "assay": "Receptor binding Dopamine-D5", "details": "radioligand [3H]-SCH 23390, read-out: Ki(nM) Compound 1", "experimental": "as §1, §2"}, "[12]": {"biological_target": "VIP1 (Homo sapiens, UniProt P32241)", "assay": "Receptor binding VIP1", "details": "radioligand [125I]-VIP, read-out: Ki(nM) Compound 1", "experimental": "as §1, §2"}, "[13]": {"biological_target": "Neurokinin-NK2 (Homo sapiens, UniProt P21452)", "assay": "Receptor binding Neurokinin-NK2", "details": "radioligand [125I]-neurokininA, read-out: Ki(nM) Compound 1", "experimental": "as §1, §2"}, "[14]": {"biological_target": "Dopamine-D2 (Homo sapiens, UniProt P14416)", "assay": "Receptor binding Dopamine-D2", "details": "radioligand [3H]-spiperone, read-out: Ki(nM) Compound 1", "experimental": "as §1, §2"}, "[15]": {"tested_on": "BDNF", "assay": "Induction of growth factors: BDNF RNA in brain areas by quantitative PCR", "assay_type": "in vivo", "details": "3 mg/kg p.o. once daily, 3 weeks", "experimental": "Compounds of the invention (3 mg/kg, p.o.) or vehicle are administered once daily during a period of 3 weeks (n=8 animals per treatment group). 24 hours after the last dose the animals are sacrificed (using CO2/O2 anesthesia), the brains are removed and the dissected. RNA is extracted from the individual brain samples and induction of the growth factors BDNF and GDNF is determined by quantitative PCR. Total RNA is isolated with the Trizol method (Invitrogen) from the brain pieces. cDNA is made starting with 2 μg of total RNA (pretreated for 30 min with DNAse (Ambion) in first strand buffer) using the reverse transcriptase Superscript II (Invitrogen). Quantification of […] by real time PCR makes use of the observation that the early cycles of PCR are characterized by an exponential increase in target amplification. The accumulation of PCR product is measured using Sybergreen II. Primers are designed using the software package Primer Express (Applied Biosystems). Expression levels of the housekeeping genes ornithine decarboxylase (ODC_ex8) and alpha tubulin (TUBA) used for normalization and as control for good cDNA synthesis."}, "[16]": {"biological_target": "bradykinin (Homo sapiens, UniProt P30411)", "sequence (P30411 whole entry)": "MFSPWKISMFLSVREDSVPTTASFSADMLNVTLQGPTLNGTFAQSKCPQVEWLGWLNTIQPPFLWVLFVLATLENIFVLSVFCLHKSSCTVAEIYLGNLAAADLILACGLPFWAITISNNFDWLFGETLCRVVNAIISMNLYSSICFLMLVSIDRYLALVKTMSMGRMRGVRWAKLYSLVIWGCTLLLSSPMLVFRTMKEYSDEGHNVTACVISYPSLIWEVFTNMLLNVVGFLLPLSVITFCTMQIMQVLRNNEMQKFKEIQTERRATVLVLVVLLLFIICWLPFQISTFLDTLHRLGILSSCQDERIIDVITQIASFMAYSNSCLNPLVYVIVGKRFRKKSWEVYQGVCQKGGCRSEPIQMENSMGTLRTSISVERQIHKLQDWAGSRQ", "assay": "Receptor binding bradykinin", "details": "radioligand [3H]-bradykinin, read-out: Ki(nM) Compound 1", "experimental": "as §1, §2"}, "[17]": {"biological_target": "5-HT4 (Homo sapiens, UniProt Q13639)", "assay": "Receptor binding 5-HT4", "details": "radioligand [3H]-GR 113808, read-out: Ki(nM) Compound 1", "experimental": "as §1, §2"}, "[18]": {"biological_target": "Adenosine-A2A (Homo sapiens, UniProt P29274)", "assay": "Receptor binding Adenosine-A2A", "details": "radioligand [3H]-CGS 21680, read-out: Ki(nM) Compound 1", "experimental": "as §1, §2"}, "[19]": {"biological_target": "sigma-SG2 (Rattus norvegicus, UniProt Q5U3Y7)", "sequence (Q5U3Y7 whole entry)": "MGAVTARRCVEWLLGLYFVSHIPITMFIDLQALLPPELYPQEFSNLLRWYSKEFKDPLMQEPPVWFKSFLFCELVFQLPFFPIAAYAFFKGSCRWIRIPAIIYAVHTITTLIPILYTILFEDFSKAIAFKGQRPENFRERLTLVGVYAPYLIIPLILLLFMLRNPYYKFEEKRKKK", "assay": "Receptor binding sigma-SG2", "details": "radioligand [3H]-DTG, read-out: Ki(nM) Compound 1", "experimental": "as §1, §2"}, "[20]": {"biological_target": "GABAB (Rattus norvegicus, UniProt Q9Z0U4)", "assay": "Receptor binding GABAB", "details": "read-out: Ki(nM) Compound 1", "experimental": "as §1, §2"}, "[21]": {"biological_target": "Ca++-channel (Rattus norvegicus, UniProt Q02294)", "sequence (Q02294 whole entry)": "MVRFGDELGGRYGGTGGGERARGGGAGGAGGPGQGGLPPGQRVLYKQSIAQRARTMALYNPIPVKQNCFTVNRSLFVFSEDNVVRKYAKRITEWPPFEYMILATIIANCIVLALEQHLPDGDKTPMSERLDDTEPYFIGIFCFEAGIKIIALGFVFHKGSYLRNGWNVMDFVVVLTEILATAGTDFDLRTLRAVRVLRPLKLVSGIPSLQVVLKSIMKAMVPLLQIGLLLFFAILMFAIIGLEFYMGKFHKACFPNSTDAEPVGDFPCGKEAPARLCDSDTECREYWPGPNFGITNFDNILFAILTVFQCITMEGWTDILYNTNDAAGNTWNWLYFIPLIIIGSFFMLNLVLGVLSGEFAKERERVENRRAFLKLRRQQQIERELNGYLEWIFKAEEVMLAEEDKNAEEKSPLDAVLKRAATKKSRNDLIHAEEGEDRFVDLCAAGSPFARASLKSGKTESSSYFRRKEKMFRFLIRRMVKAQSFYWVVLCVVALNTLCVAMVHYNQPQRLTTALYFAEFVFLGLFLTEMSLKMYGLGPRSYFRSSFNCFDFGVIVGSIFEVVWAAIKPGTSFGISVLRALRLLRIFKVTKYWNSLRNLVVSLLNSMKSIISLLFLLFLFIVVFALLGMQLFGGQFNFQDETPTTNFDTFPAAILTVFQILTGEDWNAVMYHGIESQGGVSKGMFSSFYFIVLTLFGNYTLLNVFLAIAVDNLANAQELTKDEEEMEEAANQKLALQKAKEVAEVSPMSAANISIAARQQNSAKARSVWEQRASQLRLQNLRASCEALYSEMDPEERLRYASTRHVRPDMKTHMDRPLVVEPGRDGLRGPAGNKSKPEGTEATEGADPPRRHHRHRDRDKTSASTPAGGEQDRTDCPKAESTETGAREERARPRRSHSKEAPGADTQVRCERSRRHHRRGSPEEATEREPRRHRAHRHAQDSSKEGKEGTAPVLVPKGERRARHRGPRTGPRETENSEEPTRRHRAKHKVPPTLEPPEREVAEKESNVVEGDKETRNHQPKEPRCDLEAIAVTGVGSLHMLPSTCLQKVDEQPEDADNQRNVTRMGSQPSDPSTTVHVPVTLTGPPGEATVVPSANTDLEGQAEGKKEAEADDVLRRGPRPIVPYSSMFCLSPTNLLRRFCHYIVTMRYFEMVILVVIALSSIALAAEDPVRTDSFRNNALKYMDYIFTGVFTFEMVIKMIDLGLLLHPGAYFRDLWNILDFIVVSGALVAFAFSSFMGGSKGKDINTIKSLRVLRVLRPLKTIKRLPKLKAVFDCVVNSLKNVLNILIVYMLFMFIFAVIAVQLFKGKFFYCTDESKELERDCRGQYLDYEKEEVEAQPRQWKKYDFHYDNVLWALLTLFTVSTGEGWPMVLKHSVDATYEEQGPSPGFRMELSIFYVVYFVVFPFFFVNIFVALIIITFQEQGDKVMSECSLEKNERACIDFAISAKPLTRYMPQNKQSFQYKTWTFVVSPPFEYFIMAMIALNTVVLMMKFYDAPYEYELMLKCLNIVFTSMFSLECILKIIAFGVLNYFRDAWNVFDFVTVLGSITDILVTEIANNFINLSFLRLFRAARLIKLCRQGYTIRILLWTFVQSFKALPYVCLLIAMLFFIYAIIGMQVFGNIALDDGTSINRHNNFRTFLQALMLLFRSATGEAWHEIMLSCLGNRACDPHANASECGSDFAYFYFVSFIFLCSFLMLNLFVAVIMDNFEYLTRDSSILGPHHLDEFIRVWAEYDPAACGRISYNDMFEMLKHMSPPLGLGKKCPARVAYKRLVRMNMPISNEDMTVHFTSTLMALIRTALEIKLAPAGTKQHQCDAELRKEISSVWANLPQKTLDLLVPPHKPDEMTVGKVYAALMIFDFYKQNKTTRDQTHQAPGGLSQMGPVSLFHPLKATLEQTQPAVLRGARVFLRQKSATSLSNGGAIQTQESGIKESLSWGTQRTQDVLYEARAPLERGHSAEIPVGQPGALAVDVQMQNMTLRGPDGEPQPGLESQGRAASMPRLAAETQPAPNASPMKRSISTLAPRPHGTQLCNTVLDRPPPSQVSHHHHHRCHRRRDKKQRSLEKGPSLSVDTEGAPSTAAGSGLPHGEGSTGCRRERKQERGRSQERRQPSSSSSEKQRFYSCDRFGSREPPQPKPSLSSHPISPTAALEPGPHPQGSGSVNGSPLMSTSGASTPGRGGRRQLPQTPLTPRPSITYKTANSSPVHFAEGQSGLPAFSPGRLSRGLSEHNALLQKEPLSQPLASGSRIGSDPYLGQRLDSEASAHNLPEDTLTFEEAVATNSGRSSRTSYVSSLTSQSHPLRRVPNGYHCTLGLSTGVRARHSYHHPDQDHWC", "sequence (P54287 whole entry partner)": "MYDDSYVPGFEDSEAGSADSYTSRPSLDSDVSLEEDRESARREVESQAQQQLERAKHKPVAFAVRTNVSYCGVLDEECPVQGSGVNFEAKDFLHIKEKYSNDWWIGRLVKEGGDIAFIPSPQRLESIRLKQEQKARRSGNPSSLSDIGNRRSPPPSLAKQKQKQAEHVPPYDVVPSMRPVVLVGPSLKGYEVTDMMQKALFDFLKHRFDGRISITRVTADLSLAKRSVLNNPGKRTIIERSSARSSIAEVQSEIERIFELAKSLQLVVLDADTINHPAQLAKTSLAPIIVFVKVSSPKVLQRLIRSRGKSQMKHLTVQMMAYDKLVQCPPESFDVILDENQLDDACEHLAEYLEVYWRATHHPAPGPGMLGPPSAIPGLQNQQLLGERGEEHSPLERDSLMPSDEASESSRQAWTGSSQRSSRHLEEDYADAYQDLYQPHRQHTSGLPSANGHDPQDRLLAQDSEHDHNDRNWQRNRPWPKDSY", "assay": "biochemical", "assay_type": "binding"}, "[22]": {"biological_target": "CCR1 (Homo sapiens, UniProt P32246)", "assay": "Receptor binding CCR1", "details": "radioligand [125I]-MIP-1a, read-out: Ki(nM) Compound 1", "experimental": "as §1, §2"}, "[23]": {"biological_target": "angiotensin-AT1 (Homo sapiens, UniProt P30556)", "assay": "Receptor binding angiotensin-AT1", "details": "radioligand [125I]-angiotensin II, read-out: Ki(nM) Compound 1", "experimental": "as §1, §2"}}, "data": [{"compound": "Nc1cc2cccc(N3CCNCC3)c2oc1=O", "note": "[Compound 1, 3-amino-8-(1-piperazinyl)-2H-1-benzopyran-2-one]", "values": [{"measurement": "Ki", "setting": "[1]", "value": "> 1000", "unit": "nM"}, {"measurement": "Ki", "setting": "[2]", "value": "> 1000", "unit": "nM"}, {"measurement": "Ki", "setting": "[3]", "value": 250, "unit": "nM"}, {"measurement": "Ki", "setting": "[4]", "value": "> 1000", "unit": "nM"}, {"measurement": "Ki", "setting": "[5]", "value": "> 1000", "unit": "nM"}, {"measurement": "Ki", "setting": "[6]", "value": 40, "unit": "nM"}, {"measurement": "Ki", "setting": "[7]", "value": "> 1000", "unit": "nM"}, {"measurement": "Ki", "setting": "[8]", "value": "> 1000", "unit": "nM"}, {"measurement": "Ki", "setting": "[9]", "value": "> 1000", "unit": "nM"}, {"measurement": "Ki", "setting": "[10]", "value": "> 10000", "unit": "nM"}, {"measurement": "Ki", "setting": "[11]", "value": "> 1000", "unit": "nM"}, {"measurement": "Ki", "setting": "[12]", "value": "> 1000", "unit": "nM"}, {"measurement": "Ki", "setting": "[13]", "value": "> 1000", "unit": "nM"}, {"measurement": "Ki", "setting": "[14]", "value": "> 1000", "unit": "nM"}, {"measurement": "BDNF RNA, fold increase compared to vehicle treatment", "setting": "[15]; hippocampus", "value": 2.4, "unit": "fold"}, {"measurement": "BDNF RNA, fold increase compared to vehicle treatment", "setting": "[15]; nucleus accumbens", "value": 5.1, "unit": "fold"}, {"measurement": "BDNF RNA, fold increase compared to vehicle treatment", "setting": "[15]; prefrontal cortex", "value": 2.1, "unit": "fold"}, {"measurement": "BDNF RNA, fold increase compared to vehicle treatment", "setting": "[15]; striatum", "value": 1.8, "unit": "fold"}, {"measurement": "BDNF RNA, fold increase compared to vehicle treatment", "setting": "[15]; thalamus", "value": 2.3, "unit": "fold"}, {"measurement": "Ki", "setting": "[16]", "value": "> 1000", "unit": "nM"}, {"measurement": "Ki", "setting": "[17]", "value": "> 1000", "unit": "nM"}, {"measurement": "Ki", "setting": "[18]", "value": "> 1000", "unit": "nM"}, {"measurement": "Ki", "setting": "[19]", "value": "> 1000", "unit": "nM"}, {"measurement": "Ki", "setting": "[20]", "value": "> 1000", "unit": "nM"}, {"measurement": "Ki", "setting": "[21]", "value": "> 1000", "unit": "nM"}, {"measurement": "Ki", "setting": "[22]", "value": "> 1000", "unit": "nM"}, {"measurement": "Ki", "setting": "[23]", "value": "> 1000", "unit": "nM"}]}]}
